Assay results: patent US20140228407A1, “TETRA-PYRIDINE COMPOUNDS AND COMPOSITION FOR PROTECTING CELLS, TISSUES AND ORGANS AGAINST ISCHEMIA-REPERFUSION INJURY” (YISSUM RESEARCH DEVELOPMENT COMPANY OF THE HEBREW …, priority 2011, published 2014)
Entries after “also recorded” stand apart in the source; their conditions may differ.

What was measured:
[1] = tested on: model of ischemia/reperfusion in the CD rat; test: Rat model of ischemia/reperfusion, cardiac Troponin I concentration (Phase B); assay type: in vivo; details: 0.2 and 2.0 mg/kg; prior to termination; not statistically different
Experimental: This study was conducted to evaluate the effects of the Compound #6 on cardiac function, infarct size, and Troponin I levels in a model of ischemia/reperfusion in the CD® (CR1CD® (SD)) rat. Phase A was conducted for toxicity evaluation purposes. In Phase B (the efficacy phase), two treatment groups of eight male rats were administered Compound #6 at dose levels of 0.2 and 2 mg/kg via intravenous infusion following myocardial infarction. The 2 mg/kg dose of Compound #6 was administered intravenously via a slow infusion starting 3 to 14 minutes prior to reperfusion and continuing for 20 minutes to 20 minutes and 32 seconds, which was approximately 6 to 17 minutes after reperfusion (depending on the infusion start time). The 0.2 mg/kg dose of Compound #6 was administered intravenously via a slow infusion starting 10 minutes prior to reperfusion and continuing for 30 minutes to 30 minutes and 30 seconds, which was approximately 20 minutes after reperfusion.
The animals in Phase B were monitored for selected cardiovascular endpoints from at least 15 minutes prior to acute myocardial infarction until at approximately 1 hour post reperfusion. […]
In Phase B, cardiac troponin I evaluations were conducted at 3 to 54 minutes prior to coronary artery occlusion and prior to termination on all animals. […] The samples were stored frozen at −50 to −90° C. until analyzed.

CD rat = test: Toxicity evaluation in rat after myocardial ischemia (Phase A: mortality, clinical observations, body weights); assay type: in vivo; details: dose levels up to 2 mg/kg following myocardial ischemia
Experimental: This study was conducted to evaluate the effects of the Compound #6 on cardiac function, infarct size, and Troponin I levels in a model of ischemia/reperfusion in the CD® (CR1CD® (SD)) rat. Phase A was conducted for toxicity evaluation purposes. In Phase B (the efficacy phase), two treatment groups of eight male rats were administered Compound #6 at dose levels of 0.2 and 2 mg/kg via intravenous infusion following myocardial infarction. […]
The animals were placed on mechanical ventilation and not intubated. […] In Phase A, the animals were recovered from anesthesia and evaluated for 4 days. […]
In Phase A, body weights for all animals were measured and recorded at receipt, prior to randomization, just prior to surgery, and daily for 3 days during the study. In Phase B, body weights for all animals were measured and recorded at receipt, prior to each randomization as applicable, and just prior to surgery, except that a body weight was not recorded prior to randomization for the animals received in the second shipment. In both phases, the body weights recorded at receipt and prior to randomization are not reported but are maintained in the study file.

SMILES: Cc1ccc(CN(CCN(Cc2ccc(C)cn2)Cc2ccc(C)cn2)Cc2ccc(C)cn2)nc1 [Compound #6]
- Troponin I (TnI) levels versus saline and vehicle control animals [1]: substantially lower TnI levels than both saline and vehicle control animals; also recorded: substantially lower, but not significantly lower
- toxicity in the rat (overall conclusion) (CD rat): not associated with any toxicity
